{"source": "patent US12655099B2", "about": "“Substituted phenyl sulfide compound and application thereof” (SHENYANG SINOCHEM AGROCHEMICALS R&D CO., LTD., priority 2020, dated 2026)", "key": {"[1]": {"system": "Panonychus citri", "test": "Field trial against Panonychus citri on citrus trees", "format": "in vivo", "conditions": "spray, citrus tree", "procedure": "The trial was carried out in the citrus orchard in Yibin City, Sichuan Province. The test sample was “Dekopon”. The test citrus trees were 4 years old and the planting density was more than 70 plants/mu. The test compounds 6 and 14 were set at two different doses of 50 mg/L and 100 mg/L.\nAs the positive controls, Spirodiclofen suspension agent was set at one dose of 100 mg/L, and Pyridaben wettable powder was set at one dose of 100 mg/L. The test method was spraying by using Pentium 3WBD-20 sprayer, each treatment repeated three times. The number of initial mites was investigated before spraying, and the number of surviving mites was checked and recorded. The number of surviving mites was investigated on the 3 days, 7 days, 14 days, 21 days and 30 days after spraying respectively. The decline rate of mite populationg was counted and the control efficiency was calculated."}, "[2]": {"system": "Adult Spider Mite (Tetranychus cinnabarinus)", "test": "Activity against adult spider mite, spray on bean leaves, mortality after 72 h", "format": "in vivo", "conditions": "adult spider mites", "procedure": "According to the solubility of test compounds, the compounds were dissolved with acetone or dimethyl sulfoxide, and then diluted with 0.1% aqueous solution of Tween 80 to form 50 ml test liquid and the content of the acetone or the dimethyl sulfoxide in the total solution was not more than 10% for later use. The adult spider mites were put into two true leaves of bean plants. After the number of mites were investigated, the solution of certain concentrations of test compounds was sprayed by using a handheld Airbrush. Three replicates were set for each treatment. Then the leaves were maintained in standard observation room. After 72 h, the number of surviving mites were observed, and the mortality rate was calculated."}, "[3]": {"system": "Egg of Spider Mite (Tetranychus Cinnabarinus)", "test": "Activity against egg of spider mite, POTTER spray tower, incubation inhibition", "format": "in vivo", "conditions": "spider mite eggs; for inhibition at 1.25 µg/mL: Tetranychus cinnabarinus, read-out: Inhibition Rate (%)", "procedure": "According to the solubility of test compounds, the compounds were dissolved with acetone or dimethyl sulfoxide, and then diluted with 0.1% aqueous solution of Tween 80 to form 50 ml test liquid and the content of the acetone or the dimethyl sulfoxide in the total solution was not more than 10% for later use. The leaves of bean were chopped into leaf discs and put into a petri dish. Female adult mites were inoculated. After laying eggs, the female adult mites were removed. After the number of eggs were investigated, the solution of certain concentrations of test compounds were sprayed with a POTTER spray tower, for 2 mL per treatment, and blank control was set. When all eggs in the blank control were incubated, the number of eggs which were incubated and unincubated was recorded, and incubation inhibition rate of the eggs was calculated."}, "[4]": {"system": "two-spotted spider mites", "conditions": "concentration of 50 ppm; cited from earlier work"}, "[5]": {"system": "Panonychus ulmi", "test": "Field trial for controlling Panonychus ulmi on apple trees", "format": "in vivo", "conditions": "spray, apple tree", "procedure": "The trial was carried out in the orchard of Research Institute of Pomology of Chinese Academy of Agricultural Sciences. The test sample was Starkrimson apple tree, which was 14 years old and the intervals between two plants was 2×4 m. The test compound 14 was set at two different doses of 50 mg/L and 100 mg/L, and Spirodiclofen suspension agent as the positive control was set at one dose of 50 mg/L. The test method was spraying by using the stretcher power sprayer, each treatment repeated three times. The number of initial mites was investigated before spraying, and the number of surviving mites was checked and recorded. The number of surviving mites was investigated on the 3 days, 7 days, 14 days and 21 days after spraying respectively. The decline rate of mite population was counted and the control efficiency was calculated.\n[formula] • The field trial results for compound 14 against Panonychus ulmi (Xingcheng, Liaoning, May, 2018) were shown in Table 4.Table 4"}, "[6]": {"conditions": "Tetranychus cinnabarinus, 1.25 mg/L"}}}
{"smiles": "CC(C)(C)c1ccc(CSc2cnn(C(C)(C)C)c(=O)c2Cl)cc1", "note": "[Pyridaben, reference compound]", "values": [{"measurement": "Control efficiency (%) 3 days after pesticide application", "setting": "[1]; 100 mg/L", "value": 80.24, "unit": "%"}, {"measurement": "Control efficiency (%) 7 days after pesticide application", "setting": "[1]; 100 mg/L", "value": 61.51, "unit": "%"}, {"measurement": "Control efficiency (%) 14 days after pesticide application", "setting": "[1]; 100 mg/L", "value": 61.51, "unit": "%"}, {"measurement": "Control efficiency (%) 21 days after pesticide application", "setting": "[1]; 100 mg/L", "value": 51.62, "unit": "%"}, {"measurement": "Control efficiency (%) 30 days after pesticide application", "setting": "[1]; 100 mg/L", "value": 56.60, "unit": "%"}]}
{"smiles": "Cc1cc(F)c(-c2cccc(SCc3ccccc3)c2)cc1SCC(F)(F)F", "note": "[KC4]", "values": [{"measurement": "mortality at 1.25 µg/mL", "setting": "[2]; [6]", "value": 16.4, "unit": "%"}, {"measurement": "inhibition at 1.25 µg/mL", "setting": "[3]; 1.25 mg/L", "value": 40.8, "unit": "%"}, {"measurement": "lethal activity", "setting": "[4]", "value": "more than 90%"}]}
{"smiles": "Cc1cc(F)c(-c2cccc(C(F)(F)F)c2)cc1SCC(F)(F)F", "note": "[KC2, reference compound]", "values": [{"measurement": "mortality at 1.25 µg/mL", "setting": "[2]; [6]", "value": 56.6, "unit": "%"}, {"measurement": "inhibition at 1.25 µg/mL", "setting": "[3]; 1.25 mg/L", "value": 36.7, "unit": "%"}]}
{"smiles": "Cc1cc(F)c(-c2cccc(OC(F)(F)F)c2)cc1SCC(F)(F)F", "note": "[KC3, reference compound]", "values": [{"measurement": "mortality at 1.25 µg/mL", "setting": "[2]; [6]", "value": 50.7, "unit": "%"}, {"measurement": "inhibition at 1.25 µg/mL", "setting": "[3]; 1.25 mg/L", "value": 20.7, "unit": "%"}]}
{"smiles": "Cc1cc(F)c(-c2cccc(SCC(F)(F)F)c2)cc1SCC(F)(F)F", "note": "[Compound 19]", "values": [{"measurement": "Inhibition Rate (%)", "setting": "[3]; 0.625 mg/L", "value": 51.2, "unit": "%"}, {"measurement": "Inhibition Rate (%)", "setting": "[3]; 1.25 mg/L", "value": 81.1, "unit": "%"}]}
{"smiles": "Cc1cc(F)c(-c2ccc(C(F)(F)F)cc2)cc1SCC(F)(F)F", "note": "[KC1, reference compound]", "values": [{"measurement": "mortality at 1.25 µg/mL", "setting": "[2]; [6]", "value": 36.5, "unit": "%"}, {"measurement": "inhibition at 1.25 µg/mL", "setting": "[3]; 1.25 mg/L", "value": 26.2, "unit": "%"}]}
{"smiles": "CSc1cccc(-c2cc(SCC(F)(F)F)c(C)cc2F)c1", "note": "[Compound 14]", "values": [{"measurement": "Inhibition Rate (%)", "setting": "[3]; 0.625 mg/L", "value": 65.3, "unit": "%"}, {"measurement": "Inhibition Rate (%)", "setting": "[3]; 1.25 mg/L", "value": 95.8, "unit": "%"}, {"measurement": "Control efficiency (%) 3 days after pesticide application", "setting": "[5]; 50 mg/L", "value": 92.2, "unit": "%"}, {"measurement": "Control efficiency (%) 7 days after pesticide application", "setting": "[5]; 50 mg/L", "value": 86.4, "unit": "%"}, {"measurement": "Control efficiency (%) 14 days after pesticide application", "setting": "[5]; 50 mg/L", "value": 97.3, "unit": "%"}, {"measurement": "Control efficiency (%) 21 days after pesticide application", "setting": "[5]; 50 mg/L", "value": 93.2, "unit": "%"}, {"measurement": "Control efficiency (%) 3 days after pesticide application", "setting": "[5]; 100 mg/L", "value": 94.4, "unit": "%"}, {"measurement": "Control efficiency (%) 7 days after pesticide application", "setting": "[5]; 100 mg/L", "value": 96.6, "unit": "%"}, {"measurement": "Control efficiency (%) 14 days after pesticide application", "setting": "[5]; 100 mg/L", "value": 99.8, "unit": "%"}, {"measurement": "Control efficiency (%) 21 days after pesticide application", "setting": "[5]; 100 mg/L", "value": 99.1, "unit": "%"}, {"measurement": "Control efficiency (%) 3 days after pesticide application", "setting": "[1]; 50 mg/L", "value": 99.61, "unit": "%"}, {"measurement": "Control efficiency (%) 7 days after pesticide application", "setting": "[1]; 50 mg/L", "value": 98.90, "unit": "%"}, {"measurement": "Control efficiency (%) 14 days after pesticide application", "setting": "[1]; 50 mg/L", "value": 99.08, "unit": "%"}, {"measurement": "Control efficiency (%) 21 days after pesticide application", "setting": "[1]; 50 mg/L", "value": 98.57, "unit": "%"}, {"measurement": "Control efficiency (%) 30 days after pesticide application", "setting": "[1]; 50 mg/L", "value": 97.35, "unit": "%"}]}
{"smiles": "Cc1cc(F)c(-c2cccc([N+](=O)[O-])c2)cc1SCC(F)(F)F", "note": "[Compound 5]", "values": [{"measurement": "Mortality (%)", "setting": "[2]; 0.625 mg/L", "value": 95.5, "unit": "%"}, {"measurement": "Mortality (%)", "setting": "[2]; 1.25 mg/L", "value": 100, "unit": "%"}, {"measurement": "Inhibition Rate (%)", "setting": "[3]; 0.625 mg/L", "value": 100, "unit": "%"}, {"measurement": "Inhibition Rate (%)", "setting": "[3]; 1.25 mg/L", "value": 100, "unit": "%"}]}
{"smiles": "O=[N+]([O-])c1cccc(-c2cc(SCC(F)(F)F)c(Cl)cc2F)c1", "note": "[Compound 8]", "values": [{"measurement": "Mortality (%)", "setting": "[2]; 0.625 mg/L", "value": 65.2, "unit": "%"}, {"measurement": "Mortality (%)", "setting": "[2]; 1.25 mg/L", "value": 90.7, "unit": "%"}]}
{"smiles": "Cc1cc(F)c(-c2ccccc2[N+](=O)[O-])cc1SCC(F)(F)F", "note": "[KC6]", "values": [{"measurement": "mortality at 1.25 µg/mL", "setting": "[2]; [6]", "value": 0, "unit": "%"}]}
{"smiles": "CCC(C)(C)C(=O)OC1=C(c2ccc(Cl)cc2Cl)C(=O)OC12CCCCC2", "note": "[Spirodiclofen, reference compound]", "values": [{"measurement": "Control efficiency (%) 3 days after pesticide application", "setting": "[5]; 50 mg/L", "value": 49.6, "unit": "%"}, {"measurement": "Control efficiency (%) 7 days after pesticide application", "setting": "[5]; 50 mg/L", "value": 45.8, "unit": "%"}, {"measurement": "Control efficiency (%) 14 days after pesticide application", "setting": "[5]; 50 mg/L", "value": 90.3, "unit": "%"}, {"measurement": "Control efficiency (%) 21 days after pesticide application", "setting": "[5]; 50 mg/L", "value": 94.9, "unit": "%"}, {"measurement": "Control efficiency (%) 3 days after pesticide application", "setting": "[1]; 100 mg/L", "value": 91.09, "unit": "%"}, {"measurement": "Control efficiency (%) 7 days after pesticide application", "setting": "[1]; 100 mg/L", "value": 80.88, "unit": "%"}, {"measurement": "Control efficiency (%) 14 days after pesticide application", "setting": "[1]; 100 mg/L", "value": 80.88, "unit": "%"}, {"measurement": "Control efficiency (%) 21 days after pesticide application", "setting": "[1]; 100 mg/L", "value": 72.63, "unit": "%"}, {"measurement": "Control efficiency (%) 30 days after pesticide application", "setting": "[1]; 100 mg/L", "value": 73.60, "unit": "%"}]}
{"smiles": "Cc1cc(F)c(-c2ccc([N+](=O)[O-])cc2)cc1SCC(F)(F)F", "note": "[KC5]", "values": [{"measurement": "mortality at 0.625 µg/mL", "setting": "[2]; Tetranychus cinnabarinus, 0.625 mg/L", "value": 29.8, "unit": "%"}, {"measurement": "mortality at 1.25 µg/mL", "setting": "[2]; [6]", "value": 71.7, "unit": "%"}]}
{"smiles": "Cc1cc(F)c(-c2cccc([N+](=O)[O-])c2)cc1[S+]([O-])CC(F)(F)F", "note": "(centres unmarked) [Compound 6]", "values": [{"measurement": "Mortality (%)", "setting": "[2]; 0.625 mg/L", "value": 80.6, "unit": "%"}, {"measurement": "Mortality (%)", "setting": "[2]; 1.25 mg/L", "value": 97.6, "unit": "%"}, {"measurement": "Control efficiency (%) 3 days after pesticide application", "setting": "[1]; 50 mg/L", "value": 98.58, "unit": "%"}, {"measurement": "Control efficiency (%) 7 days after pesticide application", "setting": "[1]; 50 mg/L", "value": 96.69, "unit": "%"}, {"measurement": "Control efficiency (%) 14 days after pesticide application", "setting": "[1]; 50 mg/L", "value": 99.28, "unit": "%"}, {"measurement": "Control efficiency (%) 21 days after pesticide application", "setting": "[1]; 50 mg/L", "value": 95.86, "unit": "%"}, {"measurement": "Control efficiency (%) 30 days after pesticide application", "setting": "[1]; 50 mg/L", "value": 94.62, "unit": "%"}]}
